Reference: patent US11197836B2, “Topical vasoconstrictor preparations and methods for protecting cells during cancer chemotherapy and radiotherapy” (WISCONSIN ALUMNI RESEARCH FOUNDATION, priority 2005, dated 2021)

Tests used:
[1] = tested on: radiation-induced alopecia; details: 950 mM in 50:30:20 ethanol:PG:water, 10 day old rats
Experimental: At specific time points, digital images were recorded to show areas of skin blanch in the epi-treated rats.

[2] = Dissolution and 24 hr solution status of vasoconstrictor salts in ethanol:PG:water diluents, Example 6; assay type: physicochemical
Experimental: Aliquots of each vasoconstrictor salt were weighed into glass test tubes. The volume of liquid necessary to achieve the indicated final drug concentration was then added.
(§1) The approximate amount of heat required to dissolve the vasoconstrictor salt in each diluent is indicated. Once diluted, samples were sealed and held at room temperature (22° C.) for 24 hours and then at 4° C. for 24 hours. Skin blanch induced by the topical formulation was assessed by applying freshly made, clear formulation to human skin shortly after initial mixing. Drug solutions were monitored for the appearance of precipitated material over a 48 hour observation period.

human oral mucosa = tested on: human oral mucosa
Experimental: A QTip wetted with the 1 mM solution was used to swab the lower lip and oral mucosa adjoining the lower lip during the first 20 min. […] Images were taken and then scored for the degree of mucosal blanch observed.

[3] = tested on: radiation-induced oral mucositis; test: Radiation-induced oral mucositis in hamster cheek pouch, Example 16; details: for mucosal pathology: hamster cheek pouch
human skin = test: Human skin blanch 20 min after topical application, Example 6; assay type: in vivo; details: for Skin Blanch: 600 mM, human skin, 20 min after topical application
Experimental: as §1

human forearm skin = test: Human forearm skin blanch and irritation with permeation enhancers, Example 8; assay type: in vivo; details: water
Experimental: In samples where a clear, norepinephrine-containing solution was achieved, an aliquot (˜100 μl) was applied to a ˜1 cm^2 area of human forearm skin using a cotton swab. The extent of skin blanch (i.e., dermal vasculature constriction) beneath the application site was visually scored over the 60 min following application.

[4] = 50:30:20 Ethanol:PG:water, 750 mM
[5] = 10 mM topical, human lip and oral mucosa
[6] = 15:30:55 Ethanol:PG:water, 1000 mM
[7] = 20:30:50 Ethanol:PG:water, 1500 mM
[8] = 60:0:40 isopropanol:PG:water, 1500 mM
[9] = 0:50:50 Ethanol:PG:water, 1800 mM
[10] = 0:80:20 Ethanol:PG:water, 1800 mM
[11] = 12:30:58 Ethanol:PG:water, 450 mM
[12] = 12:30:58 Ethanol:PG:water, 600 mM
[13] = 12:30:58 Ethanol:PG:water, 750 mM
[14] = 15:30:55 Ethanol:PG:water, 600 mM
[15] = 33:33:33 Ethanol:PG:water, 1800 mM
[16] = 40:25:35 Ethanol:PG:water, 600 mM
[17] = 40:30:30 Ethanol:PG:water, 300 mM
[18] = 44:18:33 Ethanol:PG:water, 600 mM
[19] = 45:25:30 Ethanol:PG:water, 300 mM
[20] = 45:25:30 Ethanol:PG:water, 600 mM
[21] = 50:20:30 Ethanol:PG:water, 600 mM
[22] = 50:25:25 Ethanol:PG:water, 600 mM
[23] = 50:30:20 Ethanol:PG:water, 600 mM
[24] = 55:20:25 Ethanol:PG:water, 600 mM
[25] = 60:20:20 Ethanol:PG:water, 600 mM
[26] = 10:30:60 Ethanol:PG:water, 4000 mM
[27] = 10:30:60 Ethanol:PG:water, 5000 mM
[28] = 10:30:60 Ethanol:PG:water, 5500 mM
[29] = 12:30:58 Ethanol:PG:water, 3300 mM
[30] = 15:30:55 Ethanol:PG:water, 500 mM

With `CNC[C@H](O)c1ccc(O)c(O)c1.Cl` (racemic) [Epi (±), (±) epinephrine-HCl] as the molecule, how does the “skin blanch in treated skin field” value ([1]; by 120 min) read?
The value was “single blanched field”.

And the “coat protection on day 20” value ([1]; four applications, 7.5 Gy whole-body γ radiation)?
Its value is “confluent area of protected coat”.

And the “Heat required to completely dissolve vasoconstrictor salt (#secs. at 100° C.)” value (shortened to “Heat required”) [2, 4]?
Its value is 0 s.

And the “Sample status after 24 hr at 4° C.” value [2, 4]?
The value was “clear”.

And the “Sample status after 24 hr at ~22° C.” value [2, 4]?
Its value is “clear”.

Which blanch response (human oral mucosa; 1 mM solution swabbed on lower lip and oral mucosa during first 20 min, human) does the source give for `CNC[C@H](O)c1ccc(O)c(O)c1.O=C(O)C(O)C(O)C(=O)O` [Epi, L (−) epinephrine-tartrate] here?
Its blanch response is “little blanch response”.

And the duration of blanching (human oral mucosa; 10 mM topical, four times over 50 min, human lip and oral mucosa)?
The duration of blanching was 1.5 to 2 h.

What about the “time to clear blanching of lip and mucosa” value (human oral mucosa; [5]) of the same molecule?
Its value is at most 20 min.

And the “time to normal color lip and mucosa” value (human oral mucosa; [5])?
Its value is at most 3 h.

What about the “Heat required” value [2, 6] of the same molecule?
The value was 0 s.

What about the “Sample status after 24 hr at 4° C.” value [2, 6] of the same molecule?
The value was “clear”.

What about the “Sample status after 24 hr at ~22° C.” value [2, 6] of the same molecule?
The value was “clear”.

And the “Heat required” value [2, 7]?
The value was 0 s.

And the “Sample status after 24 hr at 4° C.” value [2, 7]?
Its value is “clear”.

And the “Sample status after 24 hr at ~22° C.” value [2, 7]?
Its value is “clear”.

What about the “Heat required” value [2, 8] of the same molecule?
Its value is 0 s.

What about the “Sample status after 24 hr at 4° C.” value [2, 8] of the same molecule?
The value was “clear”.

What about the “Sample status after 24 hr at ~22° C.” value [2, 8] of the same molecule?
Its value is “clear”.

What about the “topical concentration completely protective against γ radiation-induced pathology” value ([3]; hamster cheek pouch mucosal surface) of the same molecule?
The value was 400 μM.

And the mucosal pathology ([3]; large excess doses combined with 24 min of irradiation (40 Gy))?
Its mucosal pathology is “severe mucosal pathology”.

What about the mucosal pathology ([3]; large excess doses without irradiation) of the same molecule?
The mucosal pathology was “no discernible mucosal pathology”.

With `COc1ccc(OC)c(C(O)C(C)N)c1` (stereo not drawn) [Methoxamine] as the molecule, how does the “potency to induce skin blanch” value (human skin; applied to unbroken human skin) read?
Its value is “lacks the potency to adequately induce skin blanch”.

What does the source list for `NC[C@H](O)c1ccc(O)c(O)c1.O=C(O)C(O)C(O)C(=O)O` [Nep, L (−) norepinephrine-tartrate]?
Heat required to completely dissolve vasoconstrictor salt (#secs. at 100° C.) [2, 9]: 6 s; Sample status after 24 hr at 4° C. [2, 9]: precipitate; Sample status after 24 hr at ~22° C. [2, 9]: precipitate; Heat required to completely dissolve vasoconstrictor salt (#secs. at 100° C.) [2, 10]: 24 s; Sample status after 24 hr at 4° C. [2, 10]: precipitate; Sample status after 24 hr at ~22° C. [2, 10]: precipitate; Heat required to completely dissolve vasoconstrictor salt (#secs. at 100° C.) [2, 11]: 0 s; Sample status after 24 hr at 4° C. [2, 11]: clear; Sample status after 24 hr at ~22° C. [2, 11]: clear; Heat required to completely dissolve vasoconstrictor salt (#secs. at 100° C.) [2, 12]: 0 s; Sample status after 24 hr at 4° C. [2, 12]: clear; Sample status after 24 hr at ~22° C. [2, 12]: clear; Heat required to completely dissolve vasoconstrictor salt (#secs. at 100° C.) [2, 13]: 0 s; Sample status after 24 hr at 4° C. [2, 13]: clear; Sample status after 24 hr at ~22° C. [2, 13]: clear; Heat required to completely dissolve vasoconstrictor salt (#secs. at 100° C.) [2, 14]: 0 s; Sample status after 24 hr at 4° C. [2, 14]: clear; Sample status after 24 hr at ~22° C. [2, 14]: clear; Heat required to completely dissolve vasoconstrictor salt (#secs. at 100° C.) [2, 6]: 0 s; Sample status after 24 hr at 4° C. [2, 6]: clear; Sample status after 24 hr at ~22° C. [2, 6]: clear; Heat required to completely dissolve vasoconstrictor salt (#secs. at 100° C.) [2, 15]: 18 s; Sample status after 24 hr at 4° C. [2, 15]: precipitate; Sample status after 24 hr at ~22° C. [2, 15]: precipitate; Heat required to completely dissolve vasoconstrictor salt (#secs. at 100° C.) [2, 16]: 2 s; Sample status after 24 hr at 4° C. [2, 16]: clear; Sample status after 24 hr at ~22° C. [2, 16]: clear; Heat required to completely dissolve vasoconstrictor salt (#secs. at 100° C.) [2, 17]: 2 s; Sample status after 24 hr at 4° C. [2, 17]: clear; Sample status after 24 hr at ~22° C. [2, 17]: clear; Heat required to completely dissolve vasoconstrictor salt (#secs. at 100° C.) [2, 18]: 2 s; Sample status after 24 hr at 4° C. [2, 18]: clear; Sample status after 24 hr at ~22° C. [2, 18]: clear; Heat required to completely dissolve vasoconstrictor salt (#secs. at 100° C.) [2, 19]: 2 s; Sample status after 24 hr at 4° C. [2, 19]: clear; Sample status after 24 hr at ~22° C. [2, 19]: clear; Heat required to completely dissolve vasoconstrictor salt (#secs. at 100° C.) [2, 20]: 2 s; Sample status after 24 hr at 4° C. [2, 20]: clear; Sample status after 24 hr at ~22° C. [2, 20]: clear; Heat required to completely dissolve vasoconstrictor salt (#secs. at 100° C.) [2, 21]: 1 s; Sample status after 24 hr at 4° C. [2, 21]: clear; Sample status after 24 hr at ~22° C. [2, 21]: clear; Heat required to completely dissolve vasoconstrictor salt (#secs. at 100° C.) [2, 22]: 1 s; Sample status after 24 hr at 4° C. [2, 22]: clear; Sample status after 24 hr at ~22° C. [2, 22]: clear; Heat required to completely dissolve vasoconstrictor salt (#secs. at 100° C.) [2, 23]: 1 s; Sample status after 24 hr at 4° C. [2, 23]: clear; Sample status after 24 hr at ~22° C. [2, 23]: clear; Heat required to completely dissolve vasoconstrictor salt (#secs. at 100° C.) [2, 24]: 1 s; Sample status after 24 hr at 4° C. [2, 24]: precipitate; Sample status after 24 hr at ~22° C. [2, 24]: precipitate; Heat required to completely dissolve vasoconstrictor salt (#secs. at 100° C.) [2, 25]: 2 s; Sample status after 24 hr at 4° C. [2, 25]: clear; Sample status after 24 hr at ~22° C. [2, 25]: clear; Skin Blanch (human skin; 55:20:25 Ethanol:PG:water): +++++ (+++++ = 90-100% blanch); Skin Blanch (human skin; 60:20:20 Ethanol:PG:water): +++++ (+++++ = 90-100% blanch); Skin Irritation (human forearm skin; 300 mM Nep): No; Skin Irritation (human forearm skin; 300 mM Nep, 0.8% SLS): No; Skin Blanch (human forearm skin; 300 mM Nep, 0.8% SLS, 20 min): 0; Skin Blanch (human forearm skin; 300 mM Nep, 20 min after topical application): 0; Skin Irritation (human forearm skin; 300 mM Nep, ethanol): No; Skin Irritation (human forearm skin; 300 mM Nep, ethanol, 0.8% SLS): Slight; Skin Irritation (human forearm skin; 300 mM Nep, ethanol, 5% Menthone): Slight; Skin Irritation (human forearm skin; 300 mM Nep, ethanol, PG): No; Skin Irritation (human forearm skin; 300 mM Nep, ethanol, PG, 0.3% SLS): No; Skin Irritation (human forearm skin; 300 mM Nep, ethanol, PG, 0.3% SLS, 5% Menthone): Yes; Skin Blanch (human forearm skin; 300 mM Nep, ethanol, PG, 0.3% SLS, 5% Menthone, 20 min): +++++ (+++++ = 90-100% blanch); Skin Irritation (human forearm skin; 300 mM Nep, ethanol, PG, 5% Methone): No; Skin Irritation (human forearm skin; 300 mM Nep, ethanol, Transcutol): No; Skin Irritation (human forearm skin; 300 mM Nep, ethanol, Transcutol, 0.4% SLS): No; Skin Irritation (human forearm skin; 600 mM NEp, ethanol, PG): No; Skin Blanch (human forearm skin; 600 mM NEp, ethanol, PG, 20 min): +++++ (+++++ = 90-100% blanch); Skin Irritation (human forearm skin; 750 mM NEp, ethanol, PG): No; Skin Blanch (human forearm skin; 750 mM NEp, ethanol, PG, 20 min): +++++ (+++++ = 90-100% blanch)

With `CNC[C@H](O)c1cccc(O)c1.Cl` [PhE, R (−) phenylephrine-HCl] as the molecule, how does the “Heat required” value [2, 26] read?
The value was 12 s.

What about the “Sample status after 24 hr at 4° C.” value [2, 26] of the same molecule?
Its value is “precipitate”.

What about the “Sample status after 24 hr at ~22° C.” value [2, 26] of the same molecule?
Its value is “precipitate”.

And the “Heat required” value [2, 27]?
The value was 12 s.

What about the “Sample status after 24 hr at 4° C.” value [2, 27] of the same molecule?
Its value is “precipitate”.

What about the “Sample status after 24 hr at ~22° C.” value [2, 27] of the same molecule?
Its value is “precipitate”.

What about the “Heat required” value [2, 28] of the same molecule?
The value was 16 s.

And the “Sample status after 24 hr at 4° C.” value [2, 28]?
Its value is “precipitate”.

What about the “Sample status after 24 hr at ~22° C.” value [2, 28] of the same molecule?
The value was “precipitate”.

And the “Heat required” value [2, 29]?
The value was 8 s.

What about the “Sample status after 24 hr at 4° C.” value [2, 29] of the same molecule?
The value was “precipitate”.

And the “Sample status after 24 hr at ~22° C.” value [2, 29]?
Its value is “precipitate”.

And the “Heat required” value [2, 30]?
The value was 8 s.

And the “Sample status after 24 hr at 4° C.” value [2, 30]?
Its value is “precipitate”.

What about the “Sample status after 24 hr at ~22° C.” value [2, 30] of the same molecule?
Its value is “clear”.
